Patent US20130231296A1, “NEW DRUG COMBINATIONS FOR THE TREATMENT OF MALARIA” (Bioagency AG, priority 2010, published 2013)
Read-outs that look alike come from different tables or passages of the source.

Key:
[1] = tested on: P. falciparum 3D7; assay: in vitro inhibition of parasite growth by [3H] hypoxanthine incorporation, drugs alone; type: cell-based; conditions: Plasmodium falciparum; for IC50: 3D7, P. falciparum 3D7 (chloroquine sensitive)
Description: (§1) 1. Initial determination of the in vitro efficacy profile (IC50/IC90) of FOS and PIP against a drug sensitive and a drug resistant strain of Plasmodium falciparum. P. falciparum 3D7 is chloroquine sensitive, P. falciparum K1 is insensitive to chloroquine
(§2) in vitro inhibition of parasite growth was assessed by the incorporation of [3H] hypoxanthine, including chloroquine (CQ) and artesunate (ASN) as positive control drugs.
(§3) The first set of in vitro experiments established the IC50 values of the drugs alone, followed by Fixed Ratio Combination assays of FOS+PIP with FOS+CND as a control combination. Chloroquine and artesunate were included in all assays to ensure the validity of the test.
(§4) The first sets of experiments were carried out to establish the IC50 and IC90 values of the drugs on their own. The drugs were evaluated in 3 separate experiments (see Tables 1 & 2)

[2] = tested on: P. falciparum K1; assay: as above; type: cell-based; conditions: Plasmodium falciparum; for IC50: K1, P. falciparum K1 (insensitive to chloroquine)
Description: as §1, §2, §3, §4

[3] = 3D7, P. falciparum 3D7, Experiment 1
[4] = 3D7, P. falciparum 3D7, Experiment 2
[5] = 3D7, P. falciparum 3D7, Experiment 3

Row | SMILES | IC50 ([1]; Experiment 1) | IC50 ([1]; Experiment 2) | IC50 ([1]; Experiment 3) | IC90 [1, 3] | IC90 [1, 4] | IC90 [1, 5] | IC50 ([2]; Experiment 1) | IC50 ([2]; Experiment 2) | IC50 ([2]; Experiment 3) | IC90 ([2]; K1, P. falciparum K1, Experiment 1) | IC90 ([2]; K1, P. falciparum K1, Experiment 2) | IC90 ([2]; K1, P. falciparum K1, Experiment 3) | IC50 ([2]; Experiment 1, read-out: IC50) | IC50 ([2]; Experiment 2, read-out: IC50) | IC50 ([2]; Experiment 3, read-out: IC50) | IC90 ([2]; K1, P. falciparum K1, Experiment 1, read-out: IC90) | IC90 ([2]; K1, P. falciparum K1, Experiment 2, read-out: IC90) | IC90 ([2]; K1, P. falciparum K1, Experiment 3, read-out: IC90)
1 | C[C@H]1[C@H](OC(=O)CCC(=O)O)O[C@@H]2O[C@@]3(C)CC[C@H]4[C@H](C)CC[C@@H]1[C@@]24OO3 [ASN, Artesunate] | 1.9 ng/mL | 2 ng/mL | 0.8 ng/mL | 7 ng/mL | 2 ng/mL | 2 ng/mL | 5 ng/mL | 2 ng/mL | 2 ng/mL | 6 ng/mL | 3 ng/mL | 4 ng/mL | – | – | – | – | – | –
2 | Clc1ccc2c(N3CCN(CCCN4CCN(c5ccnc6cc(Cl)ccc56)CC4)CC3)ccnc2c1 [PIP, 7-chloro-4-[4-[3-[4-(7-chloroquinolin-4-yl)piperazin-1-yl]propyl]piperazin-1-yl]quinoline] | 10 ng/mL | 6 ng/mL | 10 ng/mL | 18 ng/mL | 20 ng/mL | 10 ng/mL | – | – | – | – | – | – | 20 ng/mL | 20 ng/mL | 10 ng/mL | 60 ng/mL | 50 ng/mL | 20 ng/mL
